IC50 and inhibition data for 17 compounds are collected here from patent publication US10519134B2, “Pyrazole compounds and methods of making and using same” (Lundbeck La Jolla Research Center, Inc., priority 2015, dated 2019).

Common to all, as to assay type: biochemical
For assay [1], the target named is T1, MAGL (Mus musculus, UniProt O35678).
T1 construct: Proteomes (mouse brain membrane fraction or cell lysates); from tissue; host or cells: mouse brain membrane fraction (or cell lysates)
T1 sequence (O35678 1-303): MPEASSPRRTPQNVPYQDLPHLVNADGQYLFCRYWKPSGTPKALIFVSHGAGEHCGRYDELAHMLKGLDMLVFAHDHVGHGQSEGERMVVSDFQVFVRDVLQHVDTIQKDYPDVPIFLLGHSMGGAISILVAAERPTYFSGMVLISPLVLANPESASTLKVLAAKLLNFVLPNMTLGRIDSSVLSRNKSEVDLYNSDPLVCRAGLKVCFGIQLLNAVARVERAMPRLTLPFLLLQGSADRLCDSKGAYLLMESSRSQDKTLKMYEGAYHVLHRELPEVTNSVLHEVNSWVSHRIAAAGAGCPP
Nature of the assay: In vitro competitive activity-based protein profiling (mouse), MAGL gel band. To be noted: for IC50: mouse; for inhibition at 1 µM: read-out: MAGL % inh. 1 μM. The procedure, abridged: (§1)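 Mouse brain membrane proteome or cell lysate (1.0 mg/mL protein) preincubated 30 min at 37 °C with varying inhibitor concentrations, then labelled 30 min at 37 °C with FP-Rh or HT-01 probe (50 μM stock). After SDS-PAGE, activity taken from fluorescent intensity of the MAGL and FAAH gel bands.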

In a further assay the target is T2, FAAH (Mus musculus, UniProt O08914).
T2 construct: Proteomes (mouse brain membrane fraction or cell lysates); from tissue; host or cells: mouse brain membrane fraction (or cell lysates)
T2 sequence (O08914 1-579): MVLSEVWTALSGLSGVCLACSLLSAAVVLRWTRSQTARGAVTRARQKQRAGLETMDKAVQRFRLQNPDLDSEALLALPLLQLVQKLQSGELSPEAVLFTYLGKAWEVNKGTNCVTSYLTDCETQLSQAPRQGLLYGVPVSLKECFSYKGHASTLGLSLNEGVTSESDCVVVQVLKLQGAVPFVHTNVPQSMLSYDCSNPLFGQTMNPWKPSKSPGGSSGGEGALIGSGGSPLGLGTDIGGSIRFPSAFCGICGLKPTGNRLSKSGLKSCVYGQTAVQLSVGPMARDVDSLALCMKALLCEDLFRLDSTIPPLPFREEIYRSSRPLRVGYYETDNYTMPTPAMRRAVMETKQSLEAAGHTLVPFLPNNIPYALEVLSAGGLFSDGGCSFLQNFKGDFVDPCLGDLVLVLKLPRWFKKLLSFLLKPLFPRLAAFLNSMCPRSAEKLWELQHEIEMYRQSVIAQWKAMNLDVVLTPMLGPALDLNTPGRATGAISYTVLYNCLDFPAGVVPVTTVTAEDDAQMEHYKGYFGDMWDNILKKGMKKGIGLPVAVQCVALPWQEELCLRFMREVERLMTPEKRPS
Description: In vitro competitive activity-based protein profiling (mouse), FAAH gel band. To be noted: for IC50: mouse; for inhibition at 1 µM: read-out: FAAH % inh. 1 μM. The method in brief: as §1

Assay [2] concerns the target T3, MAGL (Homo sapiens, UniProt Q99685).
T3 construct: Proteomes (human prefrontal cortex or cell membrane fractions); from tissue; host or cells: human prefrontal cortex (or cell membrane fractions)
T3 sequence (Q99685 1-303): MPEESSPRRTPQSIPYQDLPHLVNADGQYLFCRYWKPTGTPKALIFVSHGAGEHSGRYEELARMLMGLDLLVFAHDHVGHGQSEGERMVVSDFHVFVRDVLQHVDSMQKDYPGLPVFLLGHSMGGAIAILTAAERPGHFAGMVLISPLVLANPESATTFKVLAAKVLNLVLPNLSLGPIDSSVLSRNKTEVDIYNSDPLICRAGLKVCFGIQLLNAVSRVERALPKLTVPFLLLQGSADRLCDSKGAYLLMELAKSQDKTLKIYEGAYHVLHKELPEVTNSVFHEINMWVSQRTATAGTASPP
Nature of the assay: In vitro competitive activity-based protein profiling (human), MAGL gel band. As to the method: In Vitro Competitive Activity-Based Protein Profiling (Human).
Proteomes (human prefrontal cortex or cell membrane fractions) (50 μL, 1.0-2.0 mg/mL total protein concentration) were preincubated with varying concentrations of inhibitors at 37° C. After 30 min, FP-Rh or JW912 (1.0 μL, 50 μM in DMSO) was added and the mixture was incubated for another 30 min at room temperature. Reactions were quenched with SDS loading buffer (15 μL—4×) and run on SDS-PAGE. Following gel imaging, serine hydrolase activity was determined by measuring fluorescent intensity of gel bands corresponding to MAGL using ImageJ 1.49k software.

Broadly, the IC50 is the point on the concentration scale where inhibition reaches its midpoint. A high value points to weaker potency. With `Cc1ccc(CN2CCN(C(=O)n3ccc(NS(C)(=O)=O)n3)CC2)c(N2CCCC2)c1` [Example 137, N-(1-(4-(4-methyl-2-(pyrrolidin-1-yl)benzyl)piperazine-1-carbonyl)-1H-pyrazol-3-yl) methanesulfonamide], the IC50 at MAGL [1] was 100 to 1000 nM; on FAAH, 1000 to 10000 nM; at MAGL [2] it was at most 100 nM. Also, the figures for the inhibition at 1 µM at MAGL [1] and at FAAH were at least 75% and 0 to 25%, respectively.

With `CS(=O)(=O)Nc1ccn(C(=O)N2CCN(Cc3ccc(C(F)(F)F)cc3N3CCOCC3)CC2)n1` [Example 140, N-(1-(4-(2-morpholino-4-(trifluoromethyl)benzyl)piperazine-1-carbonyl)-1H-pyrazol-3-yl) methanesulfonamide], the values for the IC50 at MAGL [1], on FAAH and on MAGL [2] were 100 to 1000 nM, 1000 to 10000 nM and at most 100 nM, respectively. In addition, the results for the inhibition at 1 µM on MAGL [1] and on FAAH were at least 75% and 0 to 25%, respectively.

Turning to `CS(=O)(=O)Nc1ccn(C(=O)N2CCC3(CCCN3Cc3ccc(N4CCCC4)c(C(F)(F)F)c3)CC2)n1` [Example 159, N-(1-(1-(4-(pyrrolidin-1-yl)-3-(trifluoromethyl)benzyl)-1,8-diazaspiro[4.5]decane-8-carbonyl)-1H-pyrazol-3-yl) methanesulfonamide], the inhibition at 1 µM at MAGL [1] was at least 75%; on FAAH it was 0 to 25%. Also, the IC50 at MAGL [2] was 100 to 1000 nM.

For `CS(=O)(=O)Nc1ccn(C(=O)N2CCN(Cc3ccc(N4CCCC4)c(Cl)c3)CC2)n1` [Example 166, N-(1-(4-(3-chloro-4-(pyrrolidin-1-yl)benzyl)piperazine-1-carbonyl)-1H-pyrazol-3-yl) methanesulfonamide], the figures for the inhibition at 1 µM at MAGL [1] and on FAAH were at least 75% and 0 to 25%, respectively. For the same compound, the IC50 at MAGL [2] is at most 100 nM.

In the case of `CS(=O)(=O)Nc1ccn(C(=O)N2CCN(Cc3ccc(N4CCOCC4)c(C(F)(F)F)c3)CC2)n1` [Example 167, N-[1-[(4-[[4-(morpholin-4-yl)-3-(trifluoromethyl)phenyl]methyl]piperazin-1-yl)carbonyl]-1H-pyrazol-3-yl] methanesulfonamide], the inhibition at 1 µM on MAGL [1] is at least 75%; on FAAH, 0 to 25%. On MAGL [2], this compound came in with an IC50 of at most 100 nM.

As for `CS(=O)(=O)Nc1ccn(C(=O)N2CCN(Cc3ccc(C(F)(F)F)cc3N3CCN(C(N)=O)CC3)CC2)n1` [Example 171, 4-(2-((4-(3-(methylsulfonamido)-1H-pyrazole-1-carbonyl)piperazin-1-yl)methyl)-5-(trifluoromethyl)phenyl)piperazine-1-carboxamide], the values for the inhibition at 1 µM on MAGL [1] and on FAAH were at least 75% and 0 to 25%, respectively. The IC50 at MAGL [2] was at most 100 nM.

As for `CS(=O)(=O)Nc1ccn(C(=O)N2CCN(Cc3ccc(C(F)(F)F)cc3N3CCN(C4CC4)CC3)CC2)n1` [Example 172, N-(1-(4-(2-(4-cyclopropylpiperazin-1-yl)-4-(trifluoromethyl)benzyl)piperazine-1-carbonyl)-1H-pyrazol-3-yl) methanesulfonamide], the inhibition at 1 µM at MAGL [1] was at least 75%; on FAAH it was 0 to 25%. In addition, the IC50 at MAGL [2] is at most 100 nM.

Consider `CS(=O)(=O)Nc1ccn(C(=O)N2CCN(Cc3ccc(C(F)(F)F)cc3N3CCN(S(C)(=O)=O)CC3)CC2)n1` [Example 173], for which the inhibition at 1 µM was at least 75% on MAGL [1] and 0 to 25% on FAAH. This compound also showed an IC50 at MAGL [2] of at most 100 nM.

In the case of `CC(=O)N1CCN(c2cc(C(F)(F)F)ccc2CN2CCN(C(=O)n3ccc(NS(C)(=O)=O)n3)CC2)CC1` [Example 174, N-(1-(4-(2-(4-acetylpiperazin-1-yl)-4-(trifluoromethyl)benzyl)piperazine-1-carbonyl)-1H-pyrazol-3-yl) methanesulfonamide], the inhibition at 1 µM is at least 75% on MAGL [1] and 0 to 25% on FAAH. For the same compound, the IC50 at MAGL [2] was at most 100 nM.

`CS(=O)(=O)Nc1ccn(C(=O)N2CCC3(CCCN3Cc3ccc(C(F)(F)F)cc3N3CCC(F)CC3)CC2)n1` [Example 178, N-(1-(1-(2-(4-fluoropiperidin-1-yl)-4-(trifluoromethyl)benzyl)-1,8-diazaspiro[4.5]decane-8-carbonyl)-1H-pyrazol-3-yl) methanesulfonamide]: the inhibition at 1 µM is at least 75% at MAGL [1] and 0 to 25% on FAAH. For the same compound, the IC50 on MAGL [2] was at most 100 nM.

Turning to `CS(=O)(=O)Nc1ccn(C(=O)N2CCN(Cc3cc(C(F)(F)F)ccc3N3CCCC3)CC2)n1` [Example 180, N-(1-(4-(2-(pyrrolidin-1-yl)-5-(trifluoromethyl)benzyl)piperazine-1-carbonyl)-1H-pyrazol-3-yl) methanesulfonamide], the inhibition at 1 µM at MAGL [1] is at least 75%; at FAAH it was 0 to 25%. Besides, the IC50 at MAGL [2] was at most 100 nM.

With `CS(=O)(=O)Nc1ccn(C(=O)N2CCN(Cc3ccc(C(F)(F)F)cc3N3CCN(C(=O)N4CCC4)CC3)CC2)n1` [Example 187, N-(1-(4-(2-(4-(azetidine-1-carbonyl)piperazin-1-yl)-4-(trifluoromethyl)benzyl)piperazine-1-carbonyl)-1H-pyrazol-3-yl) methanesulfonamide], the inhibition at 1 µM on MAGL [1] is at least 75%; at FAAH it was 0 to 25%. Besides, the IC50 at MAGL [2] was in the range of 100 to 1000 nM.

`CC1CCCN1c1cc(C(F)(F)F)ccc1CN1CCN(C(=O)n2ccc(NS(C)(=O)=O)n2)CC1` (stereo not shown) [Example 189, N-(1-(4-(2-(2-methylpyrrolidin-1-yl)-4-(trifluoromethyl)benzyl)piperazine-1-carbonyl)-1H-pyrazol-3-yl) methanesulfonamide]: the inhibition at 1 µM on MAGL [1] was at least 75%; on FAAH it was 0 to 25%. In addition, the IC50 at MAGL [2] was at most 100 nM.

Regarding `CS(=O)(=O)Nc1ccn(C(=O)N2CCN(Cc3ccc(C(F)(F)F)cc3N3CCC(C(=O)O)C3)CC2)n1` (stereo not shown) [Example 190, 1-(2-((4-(3-(methylsulfonamido)-1H-pyrazole-1-carbonyl)piperazin-1-yl)methyl)-5-(trifluoromethyl)phenyl) pyrrolidine-3-carboxylic acid], the inhibition at 1 µM on MAGL [1] is at least 75%; on FAAH, 0 to 25%. The same compound displayed an IC50 at MAGL [2] of at most 100 nM.

On to `CC1CCCN1c1cc(CN2CCN(C(=O)n3ccc(NS(C)(=O)=O)n3)CC2)cc(C(F)(F)F)c1` (stereo not shown) [Example 191, N-(1-(4-(3-(2-methylpyrrolidin-1-yl)-5-(trifluoromethyl)benzyl)piperazine-1-carbonyl)-1H-pyrazol-3-yl) methanesulfonamide], for which the inhibition at 1 µM at MAGL [1] is at least 75%; on FAAH, 0 to 25%. Besides, the IC50 on MAGL [2] is at most 100 nM.

Turning to `CS(=O)(=O)Nc1ccn(C(=O)N2CCN(Cc3cc(N4CCC4)cc(C(F)(F)F)c3)CC2)n1` [Example 192, N-(1-(4-(3-(azetidin-1-yl)-5-(trifluoromethyl)benzyl)piperazine-1-carbonyl)-1H-pyrazol-3-yl) methanesulfonamide], the values for the inhibition at 1 µM on MAGL [1] and at FAAH were at least 75% and 0 to 25%, respectively. Besides, the IC50 on MAGL [2] was at most 100 nM.

As to `CS(=O)(=O)Nc1ccn(C(=O)N2CCC3(CCCN3Cc3cc(Cl)cc(N4CCCC4)c3)CC2)n1` [Example 193, N-(1-(1-(3-chloro-5-(pyrrolidin-1-yl)benzyl)-1,8-diazaspiro[4.5]decane-8-carbonyl)-1H-pyrazol-3-yl) methanesulfonamide], the inhibition at 1 µM was at least 75% on MAGL [1] and 0 to 25% on FAAH. Also, the IC50 at MAGL [2] was at most 100 nM.
